Reference: PMC11374673, “Discovery of isoquinoline sulfonamides as allosteric gyrase inhibitors with activity against fluoroquinolone-resistant bacteria” (Nature Chemistry, 2024)
“Also recorded” adds a separate entry of the source.

Legend:
[1] = target: T1, E. coli GyrA S172A/GyrB gyrase (Escherichia coli, UniProt P0AES4, S172A); assay: Gyrase supercoiling inhibition, GyrA S172A variant; type: biochemical
T1 construct: represents the first full-length E. coli gyrase structure in complex with an intact DNA molecule; 10xHis; 2xStrep (Twin-Strep); made in house
Procedure: Of this stock solution, 27 µl was aliquoted for each reaction in 1.5 ml Eppendorf tubes and supplemented with 0.6 µl of the appropriate compound dilution or corresponding solvent with a final DMSO concentration of 2%. The reactions were started with 3 µl of enzyme (1 U for WT gyrase retrieved from Inspiralis Limited or 25–30 nM gyrase variants purified in house) in dilution buffer (50 mM Tris–HCl (pH 7.5), 100 mM KCl, 2 mM DTT, 1 mM EDTA and 50% (wt/vol) glycerol) for a final volume of 30 µl. Reactions were run at 37 °C for 30 min and stopped with the addition of 30 µl STEB buffer (40% (wt/vol) sucrose, 100 mM Tris–HCl pH 8, 100 mM EDTA, 0.5 mg ml^−1 bromophenol blue) and 30 µl of a chloroform:isoamyl alcohol solution (24:1 vol/vol). After brief vortexing and centrifugation at 2,300g for 1 min, 20 µl of the aqueous phase was loaded onto 1% (wt/vol) agarose gels in TAE (Tris–acetate […]) gel. The gels were run at 85 V for 2 h followed by staining (15 min) in 1 µg ml^−1 ethidium bromide and destaining (5–10 min) in water. DNA was visualized (602/50, UV Trans, auto optimal exposure) with a ChemiDoc MP (Bio-Rad Laboratories Inc., equipped with ImageLab Touch Software v2.0.0.27) and the percentage of supercoiled DNA relative to the total amount material per lane was determined with ImageLab 6.1 software (Bio-Rad Laboratories Inc.) or ImageJ[47] software. […]

E. coli BW25113 = assay: Bacterial cytological profiling (BCP); type: cell-based, Escherichia coli; set-up: DAPI total area / DAPI nucleoid area / DIC area / DIC curvature / DIC feret / DIC length / DIC orientation: unit not given here; details: for DAPI aspect ratio / DAPI circularity / DAPI nucleoid area / DAPI nucleoids / DAPI perimeter / DAPI roundness / DAPI solidity / DAPI total area / DIC area / DIC aspect ratio / DIC circularity / DIC curvature / DIC feret / DIC length / DIC orientation / DIC perimeter / DIC roundness / DIC sinuosity / DIC solidity / DIC width / Decondensation / DIC angularity / DAPI intensity / SYTOX Green intensity: BCP; for morphological phenotype: BCP microscopy, 6.25 µM; for DIC angularity: 2 h, AMP 12.5, RIF 12.5, TET 6.25, CIP 0.0625, LEI-801 6.25, LEI-800 6.25 µM, average ± SD of 3 replicates; for DAPI intensity / SYTOX Green intensity: standardized to DMSO control
Procedure: Overnight E. coli BW25113 cultures were diluted 1:100 in fresh LB medium in a 100 ml Erlenmeyer flask and incubated at 120 r.p.m. and 37 °C. When OD600 >0.2, the cultures were diluted to OD600 of 0.1 in fresh LB medium with a final volume of 200 µl in a 2 ml Eppendorf tube. The appropriate antibiotic or control treatment was applied and the samples were incubated at 200 r.p.m. and 30 °C for 2 h. Subsequently, 4,6-diamidino-2-phenylindole (DAPI) (2 µg ml^−1), FM4-64 (2 µg ml^−1) and SYTOX Green (0.5 µM) were added to reach the desired concentration and the samples were incubated a further 10 min. The samples were then centrifuged at 3,300g for 50 s and the pellets resuspended in half the original volume. From this suspension, 5 µl was spotted onto a 2.0% agarose pad for microscopy.
Microscopy was performed on a Zeiss Axio Observer Z1/7 inverted microscope.
For the qualitative assessment of the bacterial morphology, the acquired images were first pre-processed in ImageJ (v1.53m)[47]. Thereafter the brightness and contrast were adjusted to allow the clearest visual inspection of the particular phenotype. For the quantitative BCP, DIC images were first pre-processed and then a random forest classifier was trained with Illastik (v1.3.3)[48] to generate a segmented image. These binary masks were then combined together with the original DIC image and processed with the ImageJ plugin MicrobeJ (v 5.13l)[49]. MicrobeJ generated cell outlines and performed measurements on cell shape accordingly. The recorded cell outlines produced by MicrobeJ were exported and used as a guide to characterize the DNA shape within each bacterium using a custom-made ImageJ macro (Appendix II). DAPI and SYTOX Green intensity were measured on raw images in a similar manner. Then, by hand, polygons were drawn that excluded bacteria to determine background intensity. After background correction the intensity was standardized to the DMSO control within the same biological replicate. For PCA, the BCP assay was executed for three independently biological replicates. During each experiment, images were acquired until 24 or more bacteria in total had been observed. Following feature extraction for each replicate, principal component analysis was performed using GraphPad Prism (v9.0.0) using multiple variable analysis with standardized data. Principal components (PCs) were selected based on the per cent of total explained variance (minimum 80%).

Structure (SMILES) | IC50 [1] | PCA clustering of 24 BCP features (E. coli BW25113) | DAPI aspect ratio (E. coli BW25113) | DAPI circularity (E. coli BW25113) | DAPI nucleoid area (E. coli BW25113) | DAPI nucleoids (E. coli BW25113) | DAPI perimeter (E. coli BW25113) | DAPI roundness (E. coli BW25113) | DAPI solidity (E. coli BW25113) | DAPI total area (E. coli BW25113) | DIC area (E. coli BW25113) | DIC aspect ratio (E. coli BW25113) | DIC circularity (E. coli BW25113) | DIC curvature (E. coli BW25113) | DIC feret (E. coli BW25113) | DIC length (E. coli BW25113) | DIC orientation (E. coli BW25113) | DIC perimeter (E. coli BW25113) | DIC roundness (E. coli BW25113) | DIC sinuosity (E. coli BW25113) | further results
O=S(=O)(NC[C@@H]1CC[C@H](c2ccc(-c3cccnc3)cc2)N1)c1cccc2cnccc12 [LEI-800] | 86 nM | formed a cluster by itself | 5.858 ± 1.821 | 0.365 ± 0.084 | 6.481 ± 2.006 | 1.368 ± 0.202 | 16.318 ± 5.417 | 0.220 ± 0.035 | 0.808 ± 0.077 | 8.438 ± 3.339 | 13.636 ± 0.225 | 6.808 ± 0.283 | 0.292 ± 0.021 | 0.034 ± 0.003 | 11.758 ± 0.377 | 11.910 ± 0.403 | 88.418 ± 18.119 | 25.156 ± 0.728 | 0.139 ± 0.012 | 1.021 ± 0.003 | DIC solidity (E. coli BW25113): 0.793 ± 0.033; DIC width (E. coli BW25113): 1.163 ± 0.063; Decondensation (E. coli BW25113): 0.616 ± 0.234; morphological phenotype (E. coli BW25113): elongation of the bacteria and condensation of the DNA; also recorded: phenotype resembling the CIP and TET morphological profile; DIC angularity (E. coli BW25113): 0.076 ± 0.010; DAPI intensity (E. coli BW25113): 0.513 ± 0.191; SYTOX Green intensity (E. coli BW25113): 2.259 ± 1.119
O=S(=O)(NC[C@H]1CC[C@@H](c2ccc(-c3ccc(F)nc3)cc2)N1)c1cccc2cnccc12 [LEI-801] | 360 nM | clustered with DMSO | 2.179 ± 0.107 | 0.723 ± 0.016 | 2.366 ± 0.636 | 1.288 ± 0.064 | 6.375 ± 0.894 | 0.484 ± 0.024 | 0.916 ± 0.005 | 2.897 ± 0.869 | 3.335 ± 0.139 | 2.661 ± 0.151 | 0.699 ± 0.026 | 0.150 ± 0.018 | 3.227 ± 0.127 | 3.253 ± 0.128 | 96.714 ± 3.816 | 7.768 ± 0.245 | 0.422 ± 0.025 | 1.026 ± 0.005 | DIC solidity (E. coli BW25113): 0.962 ± 0.004; DIC width (E. coli BW25113): 1.085 ± 0.030; Decondensation (E. coli BW25113): 0.863 ± 0.226; morphological phenotype (E. coli BW25113): phenotype that is consistent with the DMSO control; DIC angularity (E. coli BW25113): 0.123 ± 0.008; DAPI intensity (E. coli BW25113): 1.156 ± 0.345; SYTOX Green intensity (E. coli BW25113): 1.000 ± 0.284
